Measured values published in patent publication US7495027B2, “3-aryl-4-hydroxyfuranone compounds and the human and animal health use thereof” (Wyeth, priority 2003, dated 2009).
In brackets after ≈: the same amount, converted by molar mass. Like-named read-outs stand apart in the source and are kept apart here.

Key:
[1] = system: Streptococci; test: Minimum inhibitory concentration, microdilution broth method, streptococci; type: cell-based; conditions: S. pneumo GC 1894; Mueller-Hinton broth with 5% horse blood, 18-22 hours at 35° C.
Protocol: (§1) Evaluation of the Minimum Inhibitory Concentration of Test Compounds Against A Variety of Bacterial Strains
(§2) In this evaluation the minimal inhibitory concentration (MIC) of test compounds against Gram positive and Gram negative bacteria is performed using the microdilution broth method as recommended by the National Committee for Clinical Laboratory Standards (Approved Standards M7-A5 2000). Mueller-Hinton broth is used for the enterobacteriaceae, staphylococci and enterococci. Streptococci are also tested in Mueller-Hinton broth supplemented with 5% horse blood (LHB). Test organisms include recent clinical isolates that are resistant to methicillin, penicillin and/or vancomycin. […].

[2] = target: T1, S. aureus Uridine-diphosphate-N-acetylmuramoyl-L-alanine: D-glutamate liease, MurD (Staphylococcus aureus, UniProt Q2FZ92); test: biochemical; conditions: (S) S. aureus enzyme
T1 sequence (Q2FZ92 1-449): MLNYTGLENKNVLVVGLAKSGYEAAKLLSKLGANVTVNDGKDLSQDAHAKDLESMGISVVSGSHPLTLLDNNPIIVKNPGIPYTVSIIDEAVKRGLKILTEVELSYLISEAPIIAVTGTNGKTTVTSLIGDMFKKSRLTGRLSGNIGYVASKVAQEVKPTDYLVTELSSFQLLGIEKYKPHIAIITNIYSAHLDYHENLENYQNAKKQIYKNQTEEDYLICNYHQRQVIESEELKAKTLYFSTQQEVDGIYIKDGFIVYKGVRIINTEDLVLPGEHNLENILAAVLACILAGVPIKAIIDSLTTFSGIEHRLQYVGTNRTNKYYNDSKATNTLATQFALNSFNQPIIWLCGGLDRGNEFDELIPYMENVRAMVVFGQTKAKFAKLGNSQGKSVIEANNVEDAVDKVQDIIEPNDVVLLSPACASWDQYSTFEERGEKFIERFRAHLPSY
Protocol: (§3) S. aureus and E. coli Uridine-diphosphate-N-acetylmuramoyl-L-alanine: D-glutamate liease, MurD
(§4) Preparation of Enzyme Solution:
(§5) Preparation of Test Compound Solutions:
(§6) All test solutions are prepared in DMSO as 10 mg/mL, then diluted with 50 mM Tris/HCl (pH 8.5) to 100 μg/mL.
(§7) Preparation of Stop Solution:
(§8) In this evaluation, the inhibitory activity of a test compound against MurD, the enzyme which catalyzes the fourth step of bacterial cell wall biosynthesis is determined.

[3] = system: enterococci; test: Minimum inhibitory concentration, microdilution broth method, enterococci; type: cell-based; conditions: Enterococcus faecalis, Mueller-Hinton broth, 18-22 hours at 35° C.
Protocol: as §1, §2

[4] = target: E. coli Uridine-diphosphate-N-acetylmuramoyl-L-alanine: D-glutamate liease, MurD (Escherichia coli, UniProt P14900); test: biochemical; conditions: (E) E. coli enzyme
Chain of E. coli Uridine-diphosphate-N-acetylmuramoyl-L-alanine: D-glutamate liease, MurD (P14900 whole entry): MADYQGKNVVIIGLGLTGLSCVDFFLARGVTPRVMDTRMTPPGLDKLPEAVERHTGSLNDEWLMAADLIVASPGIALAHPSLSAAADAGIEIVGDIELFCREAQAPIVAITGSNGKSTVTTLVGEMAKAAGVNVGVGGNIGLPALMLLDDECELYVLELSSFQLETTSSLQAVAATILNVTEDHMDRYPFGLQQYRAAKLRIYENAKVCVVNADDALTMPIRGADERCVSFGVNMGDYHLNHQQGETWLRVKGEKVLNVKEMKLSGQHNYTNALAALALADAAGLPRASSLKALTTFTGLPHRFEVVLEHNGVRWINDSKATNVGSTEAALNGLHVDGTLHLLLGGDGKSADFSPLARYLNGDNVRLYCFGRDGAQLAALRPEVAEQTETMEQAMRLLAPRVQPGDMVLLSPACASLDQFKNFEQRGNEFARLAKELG
Protocol: as §3
The buffer is prepared from aqueous reagents with the following final concentrations: 83 mM Tris/HCl (pH 8.0), 50 mM MgCl2, and 2 mM ATP.
as §4, §5, §6, §7, §8

[5] = target: E. coli Uridine-diphosphate-N-acetvimuramoyl: L-alanine lipase, MurC (Escherichia coli, UniProt P17952); test: Inhibitory activity against MurC (E. coli); type: biochemical; conditions: (E) E. coli enzyme; for IC50: read-out: MurC IC50 (converted)
Chain of E. coli Uridine-diphosphate-N-acetvimuramoyl: L-alanine lipase, MurC (P17952 whole entry): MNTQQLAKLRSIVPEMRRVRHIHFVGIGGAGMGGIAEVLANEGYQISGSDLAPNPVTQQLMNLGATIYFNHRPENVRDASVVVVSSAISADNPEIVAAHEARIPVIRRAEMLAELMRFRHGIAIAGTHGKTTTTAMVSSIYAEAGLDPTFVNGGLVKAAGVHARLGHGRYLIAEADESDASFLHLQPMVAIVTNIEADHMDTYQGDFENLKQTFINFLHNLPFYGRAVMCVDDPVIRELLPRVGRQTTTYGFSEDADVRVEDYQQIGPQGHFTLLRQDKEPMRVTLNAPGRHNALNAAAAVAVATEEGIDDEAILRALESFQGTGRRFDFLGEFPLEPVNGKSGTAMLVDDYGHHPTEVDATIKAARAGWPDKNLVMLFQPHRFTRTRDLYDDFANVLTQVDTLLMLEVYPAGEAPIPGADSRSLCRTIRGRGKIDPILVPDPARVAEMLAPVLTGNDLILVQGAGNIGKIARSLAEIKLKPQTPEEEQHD
Protocol: S. aureus and E. coli Uridine-diphosphate-N-acetvimuramoyl: L-alanine lipase, MurC
The buffer is prepared from aqueous reagents with the following final concentrations: 83 mM Tris/HCl (pH 8.0), 50 mM MgC12, and 2 mM ATP.
as §4
A 1 mg/mL stock solution of MurC is prepared in a buffer consisting of 20 mM Tris/HCl (pH 8.5) with 2.5 μM BME. The stock solution is further diluted with the buffer to give a final enzyme concentration of 100 μg/mL for the E. coli stock solution and 70 μg/mL for the S. aureus stock solution.
as §5, §6, §7
The stop solution is prepared by stirring 1 part 4.2% ammonium molydbate in 4N HCl with 2 parts 0.045% malachite green for 30 min.
In this evaluation, the inhibitory activity of a test compound against MurC, the enzyme which catalyzes the third step of bacterial cell wall bioxynthesis is determined. Experiments are performed by adding 2.5 μl buffer, 2.5 μl 0.5M NH4SO2, 5 μl 2 μM L-Ala, 5 μl enzyme solution and 6.5 μl test compound solution to each well in a 96-well microplate. After a pre-incubation period of 10 mins. at 23° C., 3.75 μl of a 0.75 μM solution of UDP-MurNac is added to each well. Following an incubation period of 10 mins. at 37° C., 210 μl stop solution and 50 μl of a 34% w/v sodium citrate solution are added and color is allowed to develop for 10 mins. at 23° C. (Lanzetta et al., Analytical Biochemistry, 1979, 95) Optical density readings are taken at 660 nm using a Molecular Devices Spectra Max 250 with Soft Max software. Controls are performed using the same procedure and omitting the addition of UDP-MurNac.
Using these values the IC50 is determined by linear regression analysis.

[6] = target: E. coli Enopyruvyl-UPD-N-acetylglucosamine reductase, Mur B (Escherichia coli, UniProt P08373); test: biochemical; conditions: (E) E. coli enzyme; for IC50: read-out: MurB IC50 (converted)
Chain of E. coli Enopyruvyl-UPD-N-acetylglucosamine reductase, Mur B (P08373 whole entry): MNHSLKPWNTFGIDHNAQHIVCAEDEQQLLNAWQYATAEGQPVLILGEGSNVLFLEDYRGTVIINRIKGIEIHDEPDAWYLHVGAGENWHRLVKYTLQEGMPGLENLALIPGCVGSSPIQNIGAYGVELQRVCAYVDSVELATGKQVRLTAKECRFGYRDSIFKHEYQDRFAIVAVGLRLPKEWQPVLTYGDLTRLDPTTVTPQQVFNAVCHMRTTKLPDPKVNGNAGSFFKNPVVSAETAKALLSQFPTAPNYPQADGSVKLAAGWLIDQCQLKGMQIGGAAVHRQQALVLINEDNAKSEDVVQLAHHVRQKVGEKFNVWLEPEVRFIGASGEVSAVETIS
Protocol: S. aureus and E. coli Enopyruvyl-UPD-N-acetylglucosamine reductase, Mur B
Preparation of Tris/BME buffer:
Dilute 17.5 uL of aqueous 5 mM BME (2-mercaptoethanol) to 50 mL with 50 mM Tris/HCl (pH 8.0).
as §4
Dilute aqueous MurB stock solution (0.94 mg/mL) with 200 parts 50 mM Tris/2-BME buffer.
Synthesis of Substrate for MurB (MurA Product EP-UDP-GluNAc):
A mixture of 13 mg UDP-N-acetylglucosamine and 5.5 mg phosphoenolpyruvate are dissolved in 10 mL Tris/BME buffer forming 2 mM concentrations of each reagent in solution.
Preparation of Assay Buffer:
The assay buffer is prepared in water from reagents with the following final concentrations: 100 mM Tris/HCl (pH 8.0), 200 μM NADPH, 100 μM MurB substrate, 10 μM 2-mercaptoethanol, and 10 μM KCl.
Experiments are performed by adding 20 μL of a solution of test compound in a mixture of dimethylsulfoxide and water and 30 μL of enzyme solution to a well. After a pre-incubation period of 20 mins. at 23° C., 50 μL of Tris/BME buffer and 100 μL of assay buffer are added. […] Controls are performed using the same procedure and employing 20 μL of a blank dimethylsulfonide and solvent mixture in place of the test compound solution.
Using these values, the IC50 for each test compound is determined by linear regression analysis.

[7] = system: staphylococci; test: Minimum inhibitory concentration, microdilution broth method, staphylococci; type: cell-based; conditions: Staphylococcus aureus, Mueller-Hinton broth, 18-22 hours at 35° C.
Protocol: as §1, §2

[8] = target: E. coli UDP-N-acetylglucosamine enolpyruvoyl transferase, MurA (Escherichia coli, UniProt P0A749); test: biochemical; conditions: (E) E. coli enzyme
Chain of E. coli UDP-N-acetylglucosamine enolpyruvoyl transferase, MurA (P0A749 whole entry): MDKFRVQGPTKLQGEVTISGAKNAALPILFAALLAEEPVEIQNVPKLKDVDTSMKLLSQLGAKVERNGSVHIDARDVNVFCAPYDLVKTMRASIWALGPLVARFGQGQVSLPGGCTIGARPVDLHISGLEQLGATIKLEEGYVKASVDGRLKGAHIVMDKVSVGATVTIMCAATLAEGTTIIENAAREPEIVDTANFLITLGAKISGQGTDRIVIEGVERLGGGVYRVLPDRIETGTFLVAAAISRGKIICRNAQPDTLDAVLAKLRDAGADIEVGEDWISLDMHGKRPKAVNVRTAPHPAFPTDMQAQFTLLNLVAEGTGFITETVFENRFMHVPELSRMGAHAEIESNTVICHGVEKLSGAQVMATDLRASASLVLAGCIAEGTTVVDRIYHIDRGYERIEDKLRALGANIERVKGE
Protocol: Evaluation of the Inhibitory Activity of Test Compounds Against Enzymes which Catalyze Bacterial Cell Wall Biosynthesis
S. aureus and E. coli UDP-N-acetylglucosamine enolpyruvoyl transferase, MurA
as §4
The enzyme solution is prepared by admixing the following: 50 mM Tris/HCl pH 8.0, […] 1 M Tris, 5 mM DTT, […] 1 M DTT, 20% Glycerol 4 ml 50% Glycerol, add water to 10 ml.
as §7
A procedure similar to that described by C. […] Experiments are performed by adding a solution of test compound (in a mixture of dimethylsulfoxide and water) and an enzyme solution to a well. After a pre-incubation period of 10 mintues at 37° C., Tris/BME buffer and assay buffer are added. A start point optical density (OD0) reading is taken at 340 nm immediately following the addition of assay buffer. After incubation for 1 hr at 37° C., the stop solution is added and the color is allowed to develop for 30 minutes.

[9] = E. faecalis GC 2242, read-out: MIC E. faecalis GC 2242
[10] = E. faecalis GC 4555, read-out: MIC E. faecalis GC 4555
[11] = S. aureus GC 1131, read-out: MIC S. aureus GC 1131
[12] = S. aureus GC 4543, read-out: MIC S. aureus GC 4543

| SMILES | MIC [1] [µg/mL] | IC50 [2] [µM] | MIC [3, 9] [µg/mL] | MIC [3, 10] [µg/mL] | IC50 [4] [µM] | IC50 [5] [µM] | IC50 [6] [µM] | MIC [7, 11] [µg/mL] | MIC [7, 12] [µg/mL] | IC50 [8] [µM] | MurD IC50 [4] | MurC IC50 [5] | MurB IC50 [6] | MurA IC50 [8] |
| --- | --- | --- | --- | --- | --- | --- | --- | --- | --- | --- | --- | --- | --- | --- |
| Cc1ccc(C2=C(O)/C(=C/c3ccc(-c4ccc(C)cc4)cc3)OC2=O)cc1 [Example 57] | < 0.125 | 51.6 | 2 (≈ 5.43 µM) | 8 (≈ 21.7 µM) | 46.1 | 54.3 | 16.3 | 32 (≈ 86.9 µM) | 4 (≈ 10.9 µM) | > 67.9 |  |  |  |  |
| O=C1O/C(=C\c2ccc(-c3ccccc3F)cc2)C(O)=C1c1ccccc1F [Example 58] | < 0.125 | > 66.4 | 16 (≈ 42.5 µM) | > 128 | > 66.4 | 37.2 | > 66.4 | 8 (≈ 21.3 µM) | 16 (≈ 42.5 µM) | > 66.4 |  |  |  |  |
| N#Cc1cccc(-c2ccc(/C=C3\OC(=O)C(c4ccccc4C#N)=C3O)cc2)c1 [Example 59] | 32 (≈ 82 µM) | 12.8 | 8 (≈ 20.5 µM) | 8 (≈ 20.5 µM) | 12.8 | 15.4 | 15.4 | > 128 | > 128 | 43.5 |  |  |  |  |
| Cc1ccccc1C1=C(O)/C(=C/c2ccc(-c3ccccc3C)cc2)OC1=O [Example 60] | 8 (≈ 21.7 µM) | 59.7 | 8 (≈ 21.7 µM) | 32 (≈ 86.9 µM) | > 67.9 | 38 | > 67.9 | 16 (≈ 43.4 µM) | 16 (≈ 43.4 µM) | > 67.9 |  |  |  |  |
| CCOc1ccc(-c2ccc(C3=C(O)/C(=C/c4ccc(Cl)c(C(F)(F)F)c4)OC3=O)cc2)cc1 [Example 124] | 1 (≈ 2.05 µM) |  | 16 (≈ 32.9 µM) | 32 (≈ 65.7 µM) | > 51.3 | > 51.3 | 24.6 | 32 (≈ 65.7 µM) | 32 (≈ 65.7 µM) | 28.8 |  |  |  |  |
| O=C1O/C(=C\c2cc(C(F)(F)F)ccc2Cl)C(O)=C1c1ccc(-c2ccccc2)cc1 [Example 125] | 0.5 (≈ 1.13 µM) |  | 4 (≈ 9.03 µM) | 8 (≈ 18.1 µM) | 45.2 | 2.26 | 11.3 | 2 (≈ 4.52 µM) | 2 (≈ 4.52 µM) | 9.03 |  |  |  |  |
| O=C1O/C(=C\c2cc(C(F)(F)F)ccc2Cl)C(O)=C1c1ccc(-c2ccccc2)c(F)c1 [Example 126] | 0.25 (≈ 0.543 µM) |  | 1 (≈ 2.17 µM) | 4 (≈ 8.68 µM) |  |  |  | 1 (≈ 2.17 µM) | 1 (≈ 2.17 µM) |  | 9 (E) μg/mL | 5 (E) μg/mL | 1 (E) μg/mL | 3 (E) μg/mL |
| CCCc1ccc(-c2ccc(C3=C(O)/C(=C/c4cc(C(F)(F)F)ccc4Cl)OC3=O)cc2)cc1 [Example 127] | 0.25 (≈ 0.516 µM) |  | 2 (≈ 4.12 µM) | 4 (≈ 8.25 µM) | > 51.6 | > 51.6 | 12.4 | 4 (≈ 8.25 µM) | 2 (≈ 4.12 µM) | 8.25 |  |  |  |  |
| CC(C)(C)c1ccc(-c2ccc(C3=C(O)/C(=C/c4cc(C(F)(F)F)ccc4Cl)OC3=O)cc2)cc1 [Example 128] | 0.25 (≈ 0.501 µM) |  | 2 (≈ 4.01 µM) | 8 (≈ 16 µM) | > 50.1 | 48.1 | 10 | 8 (≈ 16 µM) | 4 (≈ 8.02 µM) | 8.02 |  |  |  |  |
| CCOc1ccc(-c2ccc(C3=C(O)/C(=C/c4cc(C(F)(F)F)ccc4Cl)OC3=O)cc2)cc1 [Example 129] | 0.25 (≈ 0.513 µM) |  | 2 (≈ 4.11 µM) | 4 (≈ 8.22 µM) | 14.4 | 14.4 | 4.11 | 2 (≈ 4.11 µM) | 2 (≈ 4.11 µM) | 4.11 |  |  |  |  |
| CCCc1ccc(-c2ccc(C3=C(O)/C(=C/c4cccc(C(F)(F)F)c4)OC3=O)cc2)cc1 [Example 131] | 0.25 (≈ 0.555 µM) |  | 4 (≈ 8.88 µM) | 8 (≈ 17.8 µM) | 20 | 40 | 4.44 | 32 (≈ 71 µM) | 16 (≈ 35.5 µM) | 8.88 |  |  |  |  |
| CC(C)(C)c1ccc(-c2ccc(C3=C(O)/C(=C/c4cccc(C(F)(F)F)c4)OC3=O)cc2)cc1 [Example 132] | 0.25 (≈ 0.538 µM) |  | 4 (≈ 8.61 µM) | 8 (≈ 17.2 µM) | 17.2 | 51.7 | 6.46 | 16 (≈ 34.4 µM) | 16 (≈ 34.4 µM) | 6.46 |  |  |  |  |
| CCOc1ccc(-c2ccc(C3=C(O)/C(=C/c4cccc(C(F)(F)F)c4)OC3=O)cc2)cc1 [Example 133] | 0.5 (≈ 1.11 µM) |  | 8 (≈ 17.7 µM) | 16 (≈ 35.4 µM) | 48.6 | 48.6 | 26.5 | 32 (≈ 70.7 µM) | 32 (≈ 70.7 µM) | 44.2 |  |  |  |  |
